Source: patent US20050287514A1, “Compositions and methods useful for HCV infection” (Vertex Pharmaceuticals Incorporated, priority 2003, published 2005)

Test system: HCV
Test: Inhibition of HCV infection of cryopreserved human fetal liver cells (cell-associated HCV RNA by multiplex RT-PCR)
Assay type: cell-based
Settings: VX-950 at 0.2 uM or greater; cryopreserved human fetal liver cells in HDM2; 15 hours inoculation plus additional 47 hours incubation
Method: FIG. 3 depicts the inhibition of HCV infection of cryopreserved human fetal liver cells by the HCV NS3·4a protease inhibitor VX-950 (see WO 02/18369).
Cryopreserved human fetal liver cells were thawed and allowed to adhere to wells of a collagen coated 96-well plate for 6 hours at 37° C. Non-adherent cells were removed and medium replaced with hormonally defined medium containing DMEM, BSA, nicotinamide, EGF, insulin, transferrin, and hydrocortisone (HDM2). The wells were inoculated with HCV in the presence of different concentrations of VX-950 and incubated for 15 hours at 37° C. The non-adsorbed virus was removed, the cultures washed twice with DMEM, then fresh HDM2 containing the same concentration of VX-950 was added. After incubation for an additional 47 hours, the wells were rinsed twice with PBS then the cells lysed with chaotropic buffer and RNA isolated using the Qiagen 96-well RNeasy procedure. HCV RNA was quantitated using the multiplex RT-PCR method and the mean and standard deviation of the triplicate samples at each concentration of inhibitor are presented (HCV copy number per well). […] See, FIG. 3.

CCC[C@H](NC(=O)C1[C@H]2CCC[C@H]2CN1C(=O)[C@@H](NC(=O)[C@@H](NC(=O)c1cnccn1)C1CCCCC1)C(C)(C)C)C(=O)C(=O)NC1CC1 (stereo partly shown) [VX-950]
inhibition of HCV replication (HCV RNA copy number per well): nearly complete inhibition of HCV replication
